Results: patent publication US20200131669A1, “CYCLIC PEPTIDE COMPOUND HAVING HIGH MEMBRANE PERMEABILITY, AND LIBRARY CONTAINING SAME” (Chugai Seiyaku Kabushiki Kaisha, priority 2017, published 2020)
Starred links: 1 amine or outer side, 2 acyl side, 3 side chain; linkers in the order of their positions; H or OH if unused. Positions of bridges follow the written chain, without caps; N, C: chain ends. Non-standard residues stand in square brackets, D forms with d. Residues, ends and D or L forms follow the SMILES beside them. *: point of attachment. hPhe(3-Cl) = N[C@@H](CCc1cccc(Cl)c1)C(=O)O; hPhe(4-Cl) = N[C@@H](CCc1ccc(Cl)cc1)C(=O)O; X14 = O=C([C@H](CCc1ccccc1Cl)N[*:1])[*:2]; hhPhe = N[C@@H](CCCc1ccccc1)C(=O)O; NMeF = CN[C@@H](Cc1ccccc1)C(=O)O; NMeI = CC[C@H](C)[C@H](NC)C(=O)O; NMeL = CN[C@@H](CC(C)C)C(=O)O; NMeV = CN[C@H](C(=O)O)C(C)C; NMeA = CN[C@@H](C)C(=O)O; Piperidide = C1CCN(*)CC1; NPrGly = CCCNCC(=O)O; X11 = FC(F)C(F)(F)C*; X2 = Fc1cncc(C*)c1; Sar = CNCC(=O)O; tBu = CC(C)(C)*

Experiment: Caco-2 membrane permeability, improved method as used in the following Examples (96-well, 20 to 24 h preincubation)
Format: in vitro ADME
Settings: Caco-2, Caco-2
Summary of the method: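 Papp (cm/sec) was derived from LC/MS of basal samples collected 180 min after apical dosing in FaSSIF/HBSS pH 6.0 with 1% DMSO, against a basal HBSS pH 7.4 receiver containing 4% BSA. Three-week Caco-2 cultures were first preincubated with compound in DMEM+FaSSIF at 37 °C for 20–24 h.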

Structure (SMILES)	Papp A→B
CC[C@H](C)[C@@H]1NC(=O)[C@H](Cc2ccccc2)N(C)C(=O)CN(C)C(=O)C[C@@H](C(=O)N2CCCCC2)NC(=O)[C@H](C(C)C)N(C)C(=O)[C@H](CCc2ccc(Cl)cc2)NC(=O)[C@H](CC(C)C)N(C)C(=O)[C@H](CC(C)C)N(C)C(=O)CN(C)C(=O)[C@H]([C@@H](C)O)NC(=O)[C@H](CC(C)C)N(C)C1=O [pd362] ([Sar][NMeF]I[NMeL]T[Sar][NMeL][NMeL][hPhe(4-Cl)][NMeV]D-Piperidide; lactam N-11)	1 ×10⁻⁶ cm/s
CC(C)C[C@H]1C(=O)N[C@@H](CCCc2ccccc2)C(=O)N(C)[C@@H](Cc2ccccc2)C(=O)N(C)[C@@H](C(C)C)C(=O)N[C@H](C(=O)N2CCCCC2)CC(=O)N[C@H](C)C(=O)N(C)[C@@H](Cc2ccccc2)C(=O)N[C@@H](C(C)C)C(=O)N(C)[C@@H](CC(C)C)C(=O)N[C@@H]([C@@H](C)O)C(=O)N(C)CC(=O)N1C [pd364] ([dA][NMeF]V[NMeL]T[Sar][NMeL][hhPhe][NMeF][NMeV]D-Piperidide; lactam N-11)	1 ×10⁻⁶ cm/s

Same assay, conditions: human, Caco-2, Caco-2

Structure (SMILES)	Papp A→B at 180 min
CC(C)C[C@H]1C(=O)N[C@@H](COC(C)(C)C)C(=O)N(C)[C@@H](Cc2ccccc2)C(=O)N(C)[C@@H](C(C)C)C(=O)N[C@H](C(=O)N2CCCCC2)CC(=O)N[C@H](C(C)C)C(=O)N(C)[C@@H](Cc2ccccc2)C(=O)N[C@@H](COc2cccc(Cl)c2)C(=O)N(C)[C@@H](C)C(=O)N[C@@H]([C@@H](C)O)C(=O)N(C)CC(=O)N1C [pd342]	1.9 ×10⁻⁶ cm/s
CC(C)C[C@H]1C(=O)N[C@@H](COC(C)(C)C)C(=O)N(C)[C@@H](Cc2ccccc2)C(=O)N(C)[C@@H](C(C)C)C(=O)N[C@H](C(=O)N2CCCCC2)CC(=O)N[C@H](C)C(=O)N(C)[C@@H](Cc2ccccc2)C(=O)NC(COc2cccc(Cl)c2)C(=O)N(C)[C@@H](C(C)C)C(=O)N[C@@H]([C@@H](C)O)C(=O)N(C)CC(=O)N1C (stereo partly drawn) [pd343]	2.2 ×10⁻⁶ cm/s
CC[C@H](C)[C@H]1C(=O)N[C@@H]([C@@H](C)O)C(=O)N(C)CC(=O)N(C)[C@@H](CC(C)C)C(=O)N[C@H](C(=O)N2CCCCC2)CC(=O)N(C)[C@@H](C)C(=O)NC(COc2cccc(Cl)c2)C(=O)N(C)[C@@H](CC(C)C)C(=O)N(C)[C@@H](Cc2ccccc2)C(=O)N[C@@H](C)C(=O)N(C)[C@@H](Cc2ccccc2)C(=O)N1C (stereo partly drawn) [pd344]	1.3 ×10⁻⁶ cm/s
CC[C@H](C)[C@H]1C(=O)N[C@@H]([C@@H](C)O)C(=O)N(C)CC(=O)N(C)[C@@H](C)C(=O)N[C@H](C(=O)N2CCCCC2)CC(=O)N(C)[C@@H](C)C(=O)N[C@@H](C(C)C)C(=O)N(C)[C@@H](CC(C)C)C(=O)N(C)[C@@H](Cc2ccccc2)C(=O)NC(COc2cccc(Cl)c2)C(=O)N(C)[C@@H](Cc2ccccc2)C(=O)N1C (stereo partly drawn) [pd345]	1.8 ×10⁻⁶ cm/s
CC(C)C[C@H]1C(=O)N[C@@H](COC(C)(C)C)C(=O)N(C)[C@@H](Cc2ccccc2)C(=O)N(C)[C@@H](C(C)C)C(=O)N[C@H](C(=O)N2CCCCC2)CC(=O)N[C@H](C(C)C)C(=O)N(C)[C@@H](Cc2ccccc2)C(=O)N[C@@H](COCc2cncc(F)c2)C(=O)N(C)[C@@H](CC(C)C)C(=O)N[C@@H]([C@@H](C)O)C(=O)N(C)CC(=O)N1C [pd346] ([dV][NMeF]S(X2)[NMeL]T[Sar][NMeL]S(tBu)[NMeF][NMeV]D-Piperidide; lactam N-11)	2.4 ×10⁻⁶ cm/s
CCCN1CC(=O)N(C)[C@@H](Cc2ccccc2)C(=O)N[C@@H](COCC(F)(F)C(F)F)C(=O)N(C)[C@@H](CC(C)C)C(=O)N[C@@H]([C@@H](C)O)C(=O)N(C)CC(=O)N(C)[C@@H](Cc2ccccc2)C(=O)N(C)[C@@H](CC(C)C)C(=O)N[C@@H](COC(C)(C)C)C(=O)N(C)[C@@H](CC(C)C)C(=O)N[C@H](C(=O)N2CCCCC2)CC1=O [pd349] ([NPrGly][NMeF]S(X11)[NMeL]T[Sar][NMeF][NMeL]S(tBu)[NMeL]D-Piperidide; lactam N-11)	1.8 ×10⁻⁶ cm/s
CC(C)C[C@H]1C(=O)N[C@@H](COC(C)(C)C)C(=O)N(C)[C@@H](Cc2ccccc2)C(=O)N(C)[C@@H](C(C)C)C(=O)N[C@H](C(=O)N2CCCCC2)CC(=O)N[C@H](C(C)C)C(=O)N(C)[C@@H](C)C(=O)N[C@@H](CCc2ccccc2Cl)C(=O)N(C)[C@@H](CC(C)C)C(=O)N[C@@H]([C@@H](C)O)C(=O)N(C)CC(=O)N1C [pd350] ([dV][NMeA][X14][NMeL]T[Sar][NMeL]S(tBu)[NMeF][NMeV]D-Piperidide; lactam N-11)	1.7 ×10⁻⁶ cm/s
CC(C)C[C@@H]1NC(=O)[C@H](CC(C)C)N(C)C(=O)CN(C)C(=O)[C@H]([C@@H](C)O)NC(=O)[C@H](CC(C)C)N(C)C(=O)[C@H](CCc2ccccc2Cl)NC(=O)[C@H](C)N(C)C(=O)[C@@H](C(C)C)NC(=O)C[C@@H](C(=O)N2CCCCC2)NC(=O)[C@H](C(C)C)N(C)C(=O)[C@H](Cc2ccccc2)N(C)C1=O [pd351] ([dV][NMeA][X14][NMeL]T[Sar][NMeL]L[NMeF][NMeV]D-Piperidide; lactam N-11)	1.9 ×10⁻⁶ cm/s
CC[C@H](C)[C@H]1C(=O)N[C@@H]([C@@H](C)O)C(=O)N(C)CC(=O)N(C)[C@@H](CC(C)C)C(=O)N[C@H](C(=O)N2CCCCC2)CC(=O)N(C)[C@@H](C)C(=O)N[C@@H](CCc2ccccc2Cl)C(=O)N(C)[C@@H](CC(C)C)C(=O)N(C)[C@@H](CC(C)C)C(=O)N[C@@H](C)C(=O)N(C)[C@@H](Cc2ccccc2)C(=O)N1C [pd352] ([NMeA][X14][NMeL][NMeL]A[NMeF][NMeI]T[Sar][NMeL]D-Piperidide; lactam N-11)	1.4 ×10⁻⁶ cm/s
CC(C)C[C@H]1C(=O)N[C@H](C(=O)N2CCCCC2)CC(=O)N(C)[C@@H](C)C(=O)N[C@@H](CCc2ccccc2Cl)C(=O)N(C)[C@@H](CC(C)C)C(=O)N(C)[C@@H](CC(C)C)C(=O)N[C@@H](C)C(=O)N(C)[C@@H](Cc2ccccc2)C(=O)N(C)[C@@H](C(C)C)C(=O)N[C@@H]([C@@H](C)O)C(=O)N(C)CC(=O)N1C [pd353] ([NMeA][X14][NMeL][NMeL]A[NMeF][NMeV]T[Sar][NMeL]D-Piperidide; lactam N-11)	1.4 ×10⁻⁶ cm/s
CC[C@H](C)[C@@H]1NC(=O)[C@H](Cc2ccccc2)N(C)C(=O)CN(C)C(=O)C[C@@H](C(=O)N2CCCCC2)NC(=O)[C@H](C(C)C)N(C)C(=O)[C@H](CCc2ccccc2Cl)NC(=O)[C@H](CC(C)C)N(C)C(=O)[C@H](CC(C)C)N(C)C(=O)CN(C)C(=O)[C@H]([C@@H](C)O)NC(=O)[C@H](CC(C)C)N(C)C1=O [pd354] ([Sar][NMeF]I[NMeL]T[Sar][NMeL][NMeL][X14][NMeV]D-Piperidide; lactam N-11)	1.5 ×10⁻⁶ cm/s
CC(C)C[C@@H]1NC(=O)[C@H](CC(C)C)N(C)C(=O)CN(C)C(=O)[C@H]([C@@H](C)O)NC(=O)[C@H](CC(C)C)N(C)C(=O)[C@H](CCc2cccc(Cl)c2)NC(=O)[C@H](C)N(C)C(=O)[C@@H](C(C)C)NC(=O)C[C@@H](C(=O)N2CCCCC2)NC(=O)[C@H](C(C)C)N(C)C(=O)[C@H](Cc2ccccc2)N(C)C1=O [pd355] ([dV][NMeA][hPhe(3-Cl)][NMeL]T[Sar][NMeL]L[NMeF][NMeV]D-Piperidide; lactam N-11)	2.3 ×10⁻⁶ cm/s
CC(C)C[C@H]1C(=O)N[C@H](C(=O)N2CCCCC2)CC(=O)N(C)[C@@H](C)C(=O)N[C@@H](CCc2cccc(Cl)c2)C(=O)N(C)[C@@H](CC(C)C)C(=O)N(C)[C@@H](CC(C)C)C(=O)N[C@@H](C)C(=O)N(C)[C@@H](Cc2ccccc2)C(=O)N(C)[C@@H](C(C)C)C(=O)N[C@@H]([C@@H](C)O)C(=O)N(C)CC(=O)N1C [pd356] ([NMeA][hPhe(3-Cl)][NMeL][NMeL]A[NMeF][NMeV]T[Sar][NMeL]D-Piperidide; lactam N-11)	1.2 ×10⁻⁶ cm/s
CC(C)C[C@H]1C(=O)N[C@@H](CCc2cccc(Cl)c2)C(=O)N(C)[C@@H](CC(C)C)C(=O)N[C@@H]([C@@H](C)O)C(=O)N(C)CC(=O)N(C)[C@@H](Cc2ccccc2)C(=O)N(C)[C@@H](CC(C)C)C(=O)N[C@@H](COC(C)(C)C)C(=O)N(C)[C@@H](C(C)C)C(=O)N[C@H](C(=O)N2CCCCC2)CC(=O)N(C)CC(=O)N1C [pd357] ([Sar][NMeL][hPhe(3-Cl)][NMeL]T[Sar][NMeF][NMeL]S(tBu)[NMeV]D-Piperidide; lactam N-11)	1.3 ×10⁻⁶ cm/s
CC(C)C[C@@H]1NC(=O)[C@H](CC(C)C)N(C)C(=O)CN(C)C(=O)[C@H]([C@@H](C)O)NC(=O)[C@H](CC(C)C)N(C)C(=O)[C@H](CCc2ccc(Cl)cc2)NC(=O)[C@H](C)N(C)C(=O)[C@@H](C(C)C)NC(=O)C[C@@H](C(=O)N2CCCCC2)NC(=O)[C@H](C(C)C)N(C)C(=O)[C@H](Cc2ccccc2)N(C)C1=O [pd360] ([dV][NMeA][hPhe(4-Cl)][NMeL]T[Sar][NMeL]L[NMeF][NMeV]D-Piperidide; lactam N-11)	1.6 ×10⁻⁶ cm/s
CC(C)C[C@H]1C(=O)N[C@H](C(=O)N2CCCCC2)CC(=O)N(C)[C@@H](C)C(=O)N[C@@H](CCCc2ccccc2)C(=O)N(C)[C@@H](CC(C)C)C(=O)N(C)[C@@H](Cc2ccccc2)C(=O)N[C@@H](C)C(=O)N(C)[C@@H](Cc2ccccc2)C(=O)N(C)[C@@H](C(C)C)C(=O)N[C@@H]([C@@H](C)O)C(=O)N(C)CC(=O)N1C [pd365] ([NMeA][hhPhe][NMeL][NMeF]A[NMeF][NMeV]T[Sar][NMeL]D-Piperidide; lactam N-11)	1.5 ×10⁻⁶ cm/s
